Earlier results as cited in patent US20240424001A1, “LOCAL […] OF GROWTH AND REPAIR PROMOTING COMPOUNDS FOR TREATING, REDUCING AND/OR PREVENTING STRESS URINARY IN[…] FECAL INCONTINENCE” (STATERA PHARMA INC., priority 2021, published 2024).

Conditions: approximate; testosterone = 100%; varies with species studied and assay methodology (ref. 14)

SMILES: C[C@]12CCC(=O)C=C1CC[C@@H]1[C@@H]2CC[C@]2(C)C(=O)CC[C@@H]12 [androstenedione]
- relative potency of androgens: ~10%

SMILES: C[C@]12CC[C@H]3[C@@H](CCC4=CC(=O)CC[C@@]43C)[C@@H]1CC[C@@H]2O [testosterone]
- relative potency of androgens: ~100%

SMILES: C[C@]12CC[C@H](O)CC1=CC[C@@H]1[C@@H]2CC[C@]2(C)C(=O)CC[C@@H]12 [dehydroepiandrosterone]
- relative potency of androgens: ~5%
